Assay results reported in PMC11794977, “Inhibitory Potential and Binding Thermodynamics of Scyllatoxin‐Based BH3 Domain Mimetics Targeting Repressor BCL2 Proteins” (Journal of Molecular Recognition, 2025).
Where a SMILES comes first, the peptide text is derived from it.

Key:
Bcl‐2‐ΔTM [1] = target: Bcl‐2‐ΔTM (UniProt P10415); assay: Isothermal titration calorimetry (ITC); type: binding; conditions: 25°C; for n (number of sites): 20 μM Bcl‐2‐ΔTM in cell, 200 μM peptide injected; for n (number of sites) / TΔS / ΔH: binding buffer pH 8.0, ± SD, SD; for ΔG: binding buffer pH 8.0, calculated as ΔH − TΔS
Bcl‐2‐ΔTM, sequence (P10415 whole entry, stated change not applied): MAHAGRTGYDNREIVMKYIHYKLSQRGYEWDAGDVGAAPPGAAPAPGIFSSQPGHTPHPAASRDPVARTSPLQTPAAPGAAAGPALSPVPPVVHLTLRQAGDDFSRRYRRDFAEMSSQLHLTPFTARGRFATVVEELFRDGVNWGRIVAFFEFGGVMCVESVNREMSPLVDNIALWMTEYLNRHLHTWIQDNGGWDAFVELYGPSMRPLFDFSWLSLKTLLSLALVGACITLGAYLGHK
Description: All ITC experiments were performed in triplicate using a MicroCal 200 ITC instrument (Malvern Panalytical) at 25°C. To initiate ITC experiments, the sample cell was filled with 250 μL of binding buffer supplemented with 20 μM Bcl‐2‐ΔTM. Acetylated peptides were then diluted to a final concentration of 200 μM in binding buffer and injected into the sample cell at 2 μL volumes using a 6 s injection time and a 150 s delay between each injection. Data analysis was performed using MicroCal Origin software v7.0. Non‐linear curves were fit using Equation (3) adapted from the instrument manual: (3) ΔQ=nMtΔHVo/21+Xt/nMt+1/nKaMt−1+Xt/nMt+1/nKaMt^2−4Xt/nMt where, ΔQ is the heat content released or absorbed by each injection. ΔH is the enthalpy change of ligand binding and M t is bulk concentration of Bcl‐2‐ΔTM. V o is the cell volume of Bcl‐2‐ΔTM and K a is the affinity constant. X t is bulk concentration of peptide and n is the number of sites occupied by the peptide. Dissociation constants (K d) for all peptides were calculated by taking the reciprocal of the K a .
ΔG values were calculated from the Gibbs free energy Equation (4) using Origin‐fitted values of ΔH and program‐calculated values of ΔS. (4) ΔG=ΔΗ−ΤΔS

Bcl‐2‐ΔTM [2] = target: Bcl‐2‐ΔTM (UniProt P10415); assay: FP competitive binding assay; conditions: fluorescence polarization; 100 nM Bcl‐2‐ΔTM and 25 nM ^FluBax‐BH3^ΔB pre-incubated 1 h, competitor 100 μM to 2.3 pM, further 1 h, ambient temperature; binding buffer 50 mM Tris, 100 mM NaCl, pH 8.0; triplicate; read-out: IC50 (competition with ^FluBax‐BH3^ΔB for Bcl‐2‐ΔTM)
Description: FP competitive binding assays were performed in triplicate on black 384‐well plates (#3575, Corning, Corning, NY) using a SpectraMax M5e multi‐mode plate reader (Molecular Devices, Sunnyvale, CA). For these experiments, 100 nM Bcl‐2‐ΔTM and 25 nM ^FluBax‐BH3^ΔB were initially co‐incubated for 1 h in binding buffer at ambient temperature in the dark. Following pre‐incubation, serial dilutions of acetylated peptides (100 μM to 2.3 pM) were added, and the solutions were allowed to incubate for an additional 1 h at ambient temperature in the dark. This incubation time was deemed sufficient for binding reactions to reach equilibrium, as judged by an absence of change in the observed polarization value of the sample with the lowest protein concentration over 4 h (data not shown). Following incubation, the fluorescence polarization of each sample was measured using an excitation wavelength of 498 nm and an emission wavelength of 525 nm. An average of 100 reads were recorded for each well. […]

Compound | n (number of sites) (Bcl‐2‐ΔTM [1]; 3 trials) | ΔG (Bcl‐2‐ΔTM [1]; ± SD, 3 trials) [kcal/mol] | TΔS (Bcl‐2‐ΔTM [1]; 3 trials) [kcal/mol] | ΔH (Bcl‐2‐ΔTM [1]; 3 trials) [kcal/mol] | enthalpic contribution less favorable than with ^AcBax‐BH3^ΔB (Bcl‐2‐ΔTM [1]; versus ^AcBax‐BH3^ΔB) [kcal/mol] | difference in ΔG, binds more favorably than ^AcScTx‐Bax^ΔΔ,8–26 (Bcl‐2‐ΔTM [1]; versus ^AcScTx‐Bax^ΔΔ,8–26) [kcal/mol] | IC50 (Bcl‐2‐ΔTM [2]) [nM] | Kd (Bcl‐2‐ΔTM [1]; binding buffer pH 8.0, reciprocal of K a, ± SD, 3 trials) [nM] | difference in ΔG, complex more stable than that of ^AcScTx‐Bax^ΔΔΔ (Bcl‐2‐ΔTM [1]; versus ^AcScTx‐Bax^ΔΔΔ) [kcal/mol]
CC[C@H](NC(=O)[C@H](CO)NC(=O)CNC(C)=O)C(=O)N[C@@H](CCCCN)C(=O)N[C@@H](CCCCN)C(=O)N[C@@H](CC(C)C)C(=O)N[C@@H](CO)C(=O)N[C@@H](CC)C(=O)N[C@@H](CC)C(=O)N[C@@H](CC(C)C)C(=O)N[C@@H](CCCCN)C(=O)N[C@@H](CC)C(=O)N[C@H](C(=O)NCC(=O)N[C@@H](CC(=O)O)C(=O)NCC(=O)N[C@@H](CC(C)C)C(=O)N[C@@H](CC(C)C)C(=O)NCC(=O)N[C@@H](CCCCN)C(=O)N[C@@H](CC)C(=O)N[C@H](C(=O)NCC(=O)N[C@@H](CC(=O)O)C(=O)N[C@@H](CCCCN)C(=O)N[C@@H](CC)C(=O)N[C@@H](CCC(=O)O)C(=O)N[C@@H](CC)C(=O)N[C@H](C(=O)N[C@@H](CCCCN)C(=O)N[C@@H](Cc1c[nH]cn1)C(N)=O)C(C)C)[C@@H](C)CC)[C@@H](C)CC [^AcScTx‐Bax^ΔΔΔ] (HELM PEPTIDE1{[ac].G.S.[Abu].K.K.L.S.[Abu].[Abu].L.K.[Abu].I.G.D.G.L.L.G.K.[Abu].I.G.D.K.[Abu].E.[Abu].V.K.H.[am]}$$$$V2.0) | 0.90 ± 0.09 | -8.49 ± 0.33 | 4.64 ± 0.11 | -3.85 ± 0.33 | 1.58 | ~1 |  |  | 
CC[C@H](NC(=O)[C@H](CCC(=O)O)NC(=O)[C@H](CO)NC(=O)[C@H](CC(C)C)NC(=O)[C@H](CCCCN)NC(=O)[C@H](CCCCN)NC(=O)[C@@H](NC(=O)[C@H](CO)NC(=O)CNC(C)=O)[C@@H](C)O)C(=O)N[C@@H](CC(C)C)C(=O)N[C@@H](CCCCN)C(=O)N[C@@H](CCCNC(=N)N)C(=O)N[C@H](C(=O)NCC(=O)N[C@@H](CC(=O)O)C(=O)N[C@@H](CCC(=O)O)C(=O)N[C@@H](CC(C)C)C(=O)N[C@@H](CC(=O)O)C(=O)N[C@@H](CO)C(=O)N[C@@H](CC(N)=O)C(=O)N[C@@H](CCSC)C(N)=O)[C@@H](C)CC [^AcBax‐BH3^ΔB, reference compound] (HELM PEPTIDE1{[ac].G.S.T.K.K.L.S.E.[Abu].L.K.R.I.G.D.E.L.D.S.N.M.[am]}$$$$V2.0) | 0.93 ± 0.05 | -10.02 ± 0.89 | 4.58 ± 0.20 | -5.43 ± 0.73 |  |  | 141 | 191 ± 27.5 | 1.53
CC[C@H](NC(=O)[C@H](CO)NC(=O)CNC(C)=O)C(=O)N[C@@H](CCCCN)C(=O)N[C@@H](CCCCN)C(=O)N[C@@H](CC(C)C)C(=O)N[C@@H](CO)C(=O)N[C@H]1CSSC[C@@H](C(=O)N[C@@H](CCC(=O)O)C(=O)N[C@@H](CC)C(=O)N[C@H](C(=O)N[C@@H](CCCCN)C(=O)N[C@@H](Cc2c[nH]cn2)C(N)=O)C(C)C)NC(=O)[C@H](CCCCN)NC(=O)[C@H](CC(=O)O)NC(=O)CNC(=O)[C@H]([C@@H](C)CC)NC(=O)[C@H](CC)NC(=O)[C@H](CCCCN)NC(=O)CNC(=O)[C@H](CC(C)C)NC(=O)[C@H](CC(C)C)NC(=O)CNC(=O)[C@H](CC(=O)O)NC(=O)CNC(=O)[C@H]([C@@H](C)CC)NC(=O)[C@H](CC)NC(=O)[C@H](CCCCN)NC(=O)[C@H](CC(C)C)NC(=O)[C@H](CC)NC1=O [^AcScTx‐Bax^ΔΔ,8–26] (HELM PEPTIDE1{[ac].G.S.[Abu].K.K.L.S.C.[Abu].L.K.[Abu].I.G.D.G.L.L.G.K.[Abu].I.G.D.K.C.E.[Abu].V.K.H.[am]}$PEPTIDE1,PEPTIDE1,9:R3-27:R3$$$V2.0) | 1.13 ± 0.08 | -7.51 ± 0.12 | 1.63 ± 0.03 | -5.88 ± 0.15 |  |  |  |  | 
